Reference: ChEMBL document CHEMBL1201862, “PubChem BioAssay data set” (2004)
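Growth conditions: 96-well plates. Treatment: test compound, 48 hours, 5 concentrations. Analysis: linear interpolation between bracketing concentrations; unreached endpoints set to highest concentration. GI50: concentration for 50% inhibition of growth.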 Calls of active or inactive are those of the source. Rule as the data show it: active = GI50 up to about 1.1 µM and inactive = higher.

How the values were obtained:
Test in all cases: DTP human tumour cell line panel, 48 h
[1] = test system: A549
[2] = test system: CAKI-1
[3] = test system: COLO 205
[4] = test system: HCC 2998
[5] = test system: HCT-116
[6] = test system: HCT-15
[7] = test system: Malme-3M
[8] = test system: NCI-H23
[9] = test system: NCI-H460
[10] = test system: NCI-H522
[11] = test system: RPMI-8226
[12] = test system: SF-268
[13] = test system: SK-MEL-2
[14] = test system: SNB-19
[15] = test system: SNB-75
[16] = test system: U-251
[17] = test system: SF-295
[18] = test system: SK-OV-3

Measured: GI50

COP(=O)(OC)C(=O)N1N(c2ccc([N+](=O)[O-])cc2)C(=O)C(C)NC1(NNc1ccc([N+](=O)[O-])cc1)P(=O)(OC)OC (configuration not stated)
> 100 µM: [6]
inactive: [1] > 100 µM | [2] > 100 µM | [3] > 100 µM | [4] > 100 µM | [5] > 100 µM | [7] > 100 µM | [8] > 100 µM | [9] > 100 µM | [10] > 100 µM | [11] > 100 µM | [12] > 100 µM | [13] > 100 µM | [14] > 100 µM | [15] > 100 µM | [16] > 100 µM

CC(=O)c1ccc(NC(=O)C(=O)CC(=O)c2sc(-n3nc(-c4ccccc4)cc3-c3ccccc3)nc2C)cc1
inactive: [1] > 100 µM | [2] > 100 µM | [3] > 100 µM | [4] > 100 µM | [5] > 100 µM | [7] > 100 µM | [8] > 100 µM | [9] > 100 µM | [10] > 100 µM | [11] > 100 µM | [12] > 100 µM | [17] > 100 µM | [13] > 100 µM | [18] > 100 µM | [14] > 100 µM | [16] > 100 µM
> 100 µM: [6]

O=C(N/N=C/c1ccccc1O)N/N=C/c1ccccc1O
> 100 µM: [6]
inactive: [1] > 100 µM | [3] > 100 µM | [4] > 100 µM | [5] > 100 µM | [7] > 100 µM | [8] > 100 µM | [9] > 100 µM | [10] > 100 µM | [11] > 100 µM | [12] > 100 µM | [17] > 100 µM | [13] > 100 µM | [18] > 100 µM | [14] > 100 µM | [15] > 100 µM | [16] > 100 µM

CCOC(=O)NC(=O)c1cn(CCCCCOC(=O)NCCCCCCNC(=O)OCCCCCn2cc(C(=O)NC(=O)OCC)c(=O)[nH]c2=O)c(=O)[nH]c1=O
> 100 µM: [6]
inactive: [1] > 100 µM | [2] > 100 µM | [3] > 100 µM | [4] > 100 µM | [5] > 100 µM | [7] > 100 µM | [9] > 100 µM | [10] > 100 µM | [11] > 100 µM | [12] > 100 µM | [17] > 100 µM | [13] > 100 µM | [18] > 100 µM | [14] > 100 µM | [15] > 100 µM | [16] > 100 µM

Cc1cc2c(c(C(N)=O)c1C)-c1cccc(F)c1C2=O
> 100 µM: [6]
inactive: [1] > 100 µM | [3] > 100 µM | [4] > 100 µM | [5] 80.2 µM | [7] > 100 µM | [8] > 100 µM | [9] > 100 µM | [10] 41.2 µM | [11] > 100 µM | [12] > 100 µM | [17] > 100 µM | [13] > 100 µM | [18] > 100 µM | [14] > 100 µM | [15] 30.3 µM | [16] > 100 µM

CC1c2c(Cl)nc3ccccc3c2Oc2c1c(Cl)nc1ccccc21
inactive: [1] 68.4 µM | [3] > 100 µM | [4] > 100 µM | [5] 74.6 µM | [7] > 100 µM | [8] > 100 µM | [9] > 100 µM | [10] 43.8 µM | [11] 32.8 µM | [12] > 100 µM | [17] 67.3 µM | [13] 64.6 µM | [18] > 100 µM | [14] > 100 µM | [15] 56 µM | [16] 61.9 µM

COC(=O)C1CCC(N2C(=O)CCC2C(=O)OC)=N1 (configuration not stated)
> 100 µM: [6]
inactive: [1] > 100 µM | [2] > 100 µM | [3] > 100 µM | [4] > 100 µM | [5] > 100 µM | [7] > 100 µM | [8] > 100 µM | [9] > 100 µM | [10] > 100 µM | [11] > 100 µM | [12] > 100 µM | [17] > 100 µM | [13] > 100 µM | [18] > 100 µM | [14] > 100 µM | [15] > 100 µM | [16] > 100 µM

C[C@]12CC[C@H](OC3CCCCO3)CC1=CC[C@@H]1C2CC[C@]2(C)/C(=N/O)CCC12 (some centres not stated)
14.5 µM: [6]
inactive: [1] 18.5 µM | [2] 40.6 µM | [3] > 10 µM | [4] 17.5 µM | [5] 16.1 µM | [7] 17.9 µM | [8] 19.9 µM | [9] 18.8 µM | [10] 16.9 µM | [11] 10.6 µM | [17] 15.1 µM | [13] 36.8 µM | [18] 34.9 µM | [14] 26.5 µM | [15] 20.5 µM | [16] 19.6 µM

COC(=O)[C@]1(C)C(OC)=CC(=O)C2C1[C@H]1CCC[C@@H]21 (some centres not stated)
> 100 µM: [6]
inactive: [1] > 100 µM | [2] > 100 µM | [3] > 100 µM | [4] > 100 µM | [5] > 100 µM | [7] > 100 µM | [8] > 100 µM | [9] > 100 µM | [10] > 100 µM | [11] > 100 µM | [12] > 100 µM | [17] > 100 µM | [13] > 100 µM | [18] > 100 µM | [14] > 100 µM | [15] > 100 µM | [16] > 100 µM

Cc1ccc(-c2cc(=O)c3cc(C)c(C)c(C(=O)O)c3o2)cc1C
> 100 µM: [6]
inactive: [1] > 100 µM | [2] 28.4 µM | [3] > 100 µM | [4] > 100 µM | [5] > 100 µM | [7] > 100 µM | [8] > 100 µM | [9] > 100 µM | [10] > 100 µM | [11] > 100 µM | [17] > 100 µM | [13] > 100 µM | [18] > 100 µM | [14] > 100 µM | [15] > 100 µM | [16] > 100 µM

CC(=O)OCC1OC(n2c(-c3ccc(C)cc3)cc(-c3ccccc3)c(C#N)c2=O)C(OC(C)=O)C(OC(C)=O)C1OC(C)=O (configuration not stated)
> 100 µM: [6]
inactive: [1] > 100 µM | [2] > 100 µM | [3] > 100 µM | [4] > 100 µM | [5] > 100 µM | [7] > 100 µM | [8] 60.7 µM | [9] > 100 µM | [10] 82.6 µM | [11] 67.1 µM | [12] > 100 µM | [13] > 100 µM | [18] > 100 µM | [14] > 100 µM | [15] 71.6 µM | [16] > 100 µM
